According to publication PMC3242417 (Bioorganic & medicinal chemistry letters, 2011):
Read-outs that look alike come from different tables or passages of the source.

How the values were obtained:
wild-type HBV = format: cell-based; conditions: in vitro
[1] = system: four different cell lines
HCV replicon = experiment: microbe, parasite or virus in culture; format: cell-based; conditions: for EC50: read-out: Anti-HCV EC50; for EC90: read-out: Anti-HCV EC90
HIV-1 = experiment: microbe, parasite or virus in culture; format: cell-based; conditions: for EC50: read-out: Anti-HIV-1 EC50
HepG2 cells = experiment: Toxicity to HepG2 cells; format: cell-based; conditions: data not shown
in vitro [2] = conditions: human
in vitro [3] = experiment: in vitro
in vitro [4] = conditions: human; remark: listed apart in the source
Huh-7 cells = experiment: Cellular pharmacology: intracellular metabolites in Huh-7 cells by LC-MS/MS; format: in vitro ADME; conditions: 50 μM, 37°C, 4 h
[5] = Human immunodeficiency virus 1, read-out: Anti-HIV-1 EC90

Compound	CC50 at 96 h (in vitro [2]) [µM]	IC50 (in vitro [3]) [µM]	IC50 (in vitro [4]) [µM]	EC90 (HCV replicon; Hepatitis C virus, Huh-7, 96 h) [µM]	EC90 (HIV-1; [5]) [µM]	also measured
4-amino-7-iodo-1-(2-deoxy-2-fluoro-2-C-methyl-α-D-ribofuranosyl)-1H-pyrrolo[2,3-d]pyrimidine [Compound 4e]	–	–	–	–	–	anti-HBV activity (in words) (wild-type HBV): weak anti-HBV activity; toxicity (in words) [1]: toxicity; IC50 (VERO cells): 65.9 µM; anti-HCV activity (in words) (HCV replicon; HCV replicon): modest anti-HCV activity; EC50 (HCV replicon; HCV replicon, 96 h): 7 µM; EC90 (HCV replicon; HCV replicon, 96 h): 24.9 µM; IC50 (PBM cells): > 100 µM; EC50 (HIV-1): > 100 µM; EC90 (HIV-1; read-out: Anti-HIV-1 EC90): > 100 µM; IC50 (CEM cells): 40.9 µM; toxicity to HepG2 cells (in words) (HepG2 cells): toxicity to HepG2 cells
4-amino-7-iodo-1-(2-deoxy-2-fluoro-2-C-methyl-β-D-ribofuranosyl)-1H-pyrrolo[2,3-d]pyrimidine [Compound 5e]	–	–	–	–	–	toxicity (in words) [1]: toxicity; IC50 (VERO cells): 21.4 µM; anti-HCV activity (in words) (HCV replicon; HCV replicon): modest anti-HCV activity; EC50 (HCV replicon; HCV replicon, 96 h): 1.1 µM; EC90 (HCV replicon; HCV replicon, 96 h): > 33 µM; IC50 (PBM cells): 53.2 µM; EC50 (HIV-1): 94 µM; EC90 (HIV-1; read-out: Anti-HIV-1 EC90): > 100 µM; IC50 (CEM cells): 24 µM
C[C@@]1(F)[C@H](O)[C@@H](CO)O[C@@H]1n1ccc2c(N)ncnc21 [Compound 4a]	> 10	> 100	> 100	> 10	> 100	–
C[C@@]1(F)[C@H](O)[C@@H](CO)O[C@@H]1n1cc(F)c2c(N)ncnc21 [Compound 4b]	–	> 100	–	> 10	> 100	–
C[C@@]1(F)[C@H](O)[C@@H](CO)O[C@@H]1n1cc(Cl)c2c(N)ncnc21 [Compound 4c]	> 10	–	–	> 10	–	–
C[C@@]1(F)[C@H](O)[C@@H](CO)O[C@@H]1n1cc(Br)c2c(N)ncnc21 [Compound 4d]	–	–	–	> 10	> 100	–
C[C@@]1(F)[C@H](O)[C@@H](CO)O[C@@H]1n1ccc2c(N)nc(N)nc21 [Compound 4f]	> 10	> 100	> 100	> 10	–	–
C[C@@]1(F)[C@H](O)[C@@H](CO)O[C@@H]1n1cc(I)c2c(N)nc(N)nc21 [Compound 4g]	> 10	–	–	> 10	–	–
CNc1ncnc2c1c(F)cn2[C@H]1O[C@H](CO)[C@@H](O)[C@@]1(C)F [Compound 4h]	> 10	> 100	> 100	> 10	> 100	–
COc1ncnc2c1ccn2[C@H]1O[C@H](CO)[C@@H](O)[C@@]1(C)F [Compound 4i]	–	> 100	> 100	> 10	–	–
C[C@@]1(F)[C@H](O)[C@@H](CO)O[C@H]1n1ccc2c(N)ncnc21 [Compound 5a]	–	> 100	> 100	–	–	–
C[C@@]1(F)[C@H](O)[C@@H](CO)O[C@H]1n1cc(F)c2c(N)ncnc21 [Compound 5b]	> 10	> 100	–	–	–	–
C[C@@]1(F)[C@H](O)[C@@H](CO)O[C@H]1n1cc(Cl)c2c(N)ncnc21 [Compound 5c]	–	–	–	–	> 100	–
C[C@@]1(F)[C@H](O)[C@@H](CO)O[C@H]1n1ccc2c(N)nc(N)nc21 [Compound 5f]	–	> 100	> 100	–	> 100	deamination to 7-deazaguanosine nucleoside or nucleoside phosphate (Huh-7 cells): no deamination had occurred; nucleoside triphosphate found intracellularly (Huh-7 cells): only a trace amount of nucleoside triphosphate was found
C[C@@]1(F)[C@H](O)[C@@H](CO)O[C@H]1n1cc(I)c2c(N)nc(N)nc21 [Compound 5g]	–	–	–	–	> 100	–
CNc1ncnc2c1c(F)cn2[C@@H]1O[C@H](CO)[C@@H](O)[C@@]1(C)F [Compound 5h]	–	> 100	> 100	–	–	–
COc1ncnc2c1ccn2[C@@H]1O[C@H](CO)[C@@H](O)[C@@]1(C)F [Compound 5i]	> 10	> 100	> 100	–	–	–
C=Cc1cn([C@H]2O[C@H](CO)[C@@H](O)[C@@]2(C)F)c2ncnc(N)c12 [Compound 6]	–	–	–	–	–	toxicity (in words) [1]: strong toxicity across all cell lines; anti-HCV activity (in words) (HCV replicon; HCV replicon): moderate anti-HCV activity; anti-HIV-1 activity (in words) (HIV-1): anti-HIV-1 activity
C=Cc1cn([C@@H]2O[C@H](CO)[C@@H](O)[C@@]2(C)F)c2ncnc(N)c12 [Compound 7]	–	–	–	–	–	toxicity (in words) [1]: exhibited toxicity in the ribosomal RNA assay and in three independent cell lines; anti-HIV-1 activity (in words) (HIV-1): anti-HIV-1 activity
CCc1cn([C@H]2O[C@H](CO)[C@@H](O)[C@@]2(C)F)c2ncnc(N)c12 [Compound 8]	–	–	> 100	–	> 100	–
CCc1cn([C@@H]2O[C@H](CO)[C@@H](O)[C@@]2(C)F)c2ncnc(N)c12 [Compound 9]	> 10	–	> 100	> 10	–	–
COC(=O)/C=C/c1cn([C@H]2O[C@H](CO)[C@@H](O)[C@@]2(C)F)c2ncnc(N)c12 [Compound 10]	–	> 100	> 100	> 10	–	anti-HBV activity (in words) (wild-type HBV): no anti-HBV activity; concentration up to which no cytotoxicity was observed ([1]; four different cell lines): > 100 µM; anti-HIV-1 activity (in words) (HIV-1): strong anti-HIV-1 activity
COC(=O)/C=C/c1cn([C@@H]2O[C@H](CO)[C@@H](O)[C@@]2(C)F)c2ncnc(N)c12 [Compound 11]	> 10	> 100	> 100	–	–	–
C#Cc1cn([C@H]2O[C@H](CO)[C@@H](O)[C@@]2(C)F)c2ncnc(N)c12 [Compound 12]	–	–	> 100	–	> 100	–
C#Cc1cn([C@@H]2O[C@H](CO)[C@@H](O)[C@@]2(C)F)c2ncnc(N)c12 [Compound 13]	> 10	–	> 100	> 10	–	–
C#Cc1cn([C@H]2O[C@H](CO)[C@@H](O)[C@@]2(C)F)c2nc(N)nc(N)c12 [Compound 14]	–	–	–	–	–	anti-HBV activity (in words) (wild-type HBV): no anti-HBV activity; anti-HIV-1 activity (in words) (HIV-1): anti-HIV-1 activity
C#Cc1cn([C@@H]2O[C@H](CO)[C@@H](O)[C@@]2(C)F)c2nc(N)nc(N)c12 [Compound 15]	> 10	–	–	> 10	–	–
C[C@@]1(F)[C@H](O)[C@@H](CO)O[C@@H]1n1cc(C#Cc2ccccc2)c2c(N)ncnc21 [Compound 16]	–	–	–	–	–	anti-HBV activity (in words) (wild-type HBV): no anti-HBV activity; anti-HIV-1 activity (in words) (HIV-1): anti-HIV-1 activity
C[C@@]1(F)[C@H](O)[C@@H](CO)O[C@H]1n1cc(C#Cc2ccccc2)c2c(N)ncnc21 [Compound 17]	–	–	–	> 10	–	anti-HBV activity (in words) (wild-type HBV): weak anti-HBV activity; anti-HIV-1 activity (in words) (HIV-1): anti-HIV-1 activity; toxicity to HepG2 cells (in words) (HepG2 cells): toxicity to HepG2 cells
CCOC(=O)[C@H](C)NP(=O)(OC[C@H]1O[C@@H](n2ccc3c(N)nc(N)nc32)[C@](C)(F)[C@@H]1O)Oc1ccccc1 (some centres unmarked) [Compound 20]	–	–	–	–	–	deamination to 7-deazaguanosine nucleoside or nucleoside phosphate (Huh-7 cells): no deamination had occurred; nucleoside triphosphate found intracellularly (Huh-7 cells): only a trace amount of nucleoside triphosphate was found
